Laboratory results from article PMC11054528, “Evaluation of Physicochemical Properties of Ipsapirone Derivatives Based on Chromatographic and Chemometric Approaches” (Molecules, 2024).

Tests used:
[1] = Fast gradient RP-HPLC on C18 column (CHI lipophilicity); assay type: physicochemical; details: for CHIC18 pH = 2.6 / CHIC18 pH = 7.4 / CHIC18 pH = 10.6: C18 column; for CHI LogP: from chromatographically determined CHI on nonionized forms (pH 10.6), CHI LogP = 0.054 × CHI − 1.467
Text: Considering the significant differences in the calculations obtained, the next step of our investigation considered the determination of lipophilicity using a chromatographic approach. Among the available protocols, the fast gradient approach developed by Valko was chosen because it enables the assessment of lipophilicity from a single chromatographic measurement. In addition, this approach enables the determination of the acid/basic properties of molecules through the addition of experiments under different pH conditions.
Therefore, the CHI under pH10.6 can be considered and converted to chromatographically determined LogP, called CHI LogP. A cluster analysis (CA) was performed to compare chromatographically determined and calculated lipophilicity. A CA can be used for the visualization of similarities and differences between studied objects, in this case, lipophilic parameters. The obtained results clearly indicate that significant differences between theoretical and experimental data occurred, and they formed two separate groups (Figure 1). The differences are also visible on the calculated correlation matrix (Figure 2).
For RP-HPLC experiments, a C18 Hypersil GOLD^TM (50 mm × 4.6 mm; 5.0 µm with a guard column; Thermo Scientific, Waltham, MA, USA) column was applied. The column temperature was set to 40 °C. Three water solutions were used as mobile phase A: acetic acid at pH 2.6, […] at pH 7.4, and 50 mM ammonium acetate at pH 10.5. Mobile phase B was acetonitrile (ACN). The linear gradient from 2 to 98% ACN was applied from 0 to 5.25 min and held at 98% ACN for 1.75. The mobile phase flow rate was 1.5 mL/min throughout the experiment.

[2] = target: human serum albumin (HSA) (Homo sapiens, UniProt P02768); assay: HSA-HPLC, biomimetic chromatography on Chiralpak HSA column; assay type: in vitro ADME; set-up: purchased Daicel Chiral Technologies, West Chester, PA, USA; details: for LogKHSA: pH 7.4; for %HSA: pH 7.4, recalculated from logKHSA
Chain of human serum albumin (HSA) (P02768 25-609): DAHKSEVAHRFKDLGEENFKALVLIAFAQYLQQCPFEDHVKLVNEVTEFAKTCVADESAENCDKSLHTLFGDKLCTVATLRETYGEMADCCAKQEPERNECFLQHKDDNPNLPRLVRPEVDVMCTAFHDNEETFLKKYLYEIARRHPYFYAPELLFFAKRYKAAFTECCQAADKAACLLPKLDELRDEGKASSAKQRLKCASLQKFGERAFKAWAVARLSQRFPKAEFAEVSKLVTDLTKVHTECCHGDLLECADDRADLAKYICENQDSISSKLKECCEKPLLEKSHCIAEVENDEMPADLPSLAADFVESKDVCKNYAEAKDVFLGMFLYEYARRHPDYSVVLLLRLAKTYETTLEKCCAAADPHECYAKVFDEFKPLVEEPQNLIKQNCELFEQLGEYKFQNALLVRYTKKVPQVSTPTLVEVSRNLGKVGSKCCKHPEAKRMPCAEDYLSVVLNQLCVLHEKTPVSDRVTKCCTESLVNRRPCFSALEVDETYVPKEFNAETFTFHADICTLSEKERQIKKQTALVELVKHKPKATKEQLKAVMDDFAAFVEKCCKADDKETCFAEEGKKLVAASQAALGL
Text: Utilizing columns modified by plasma proteins, such as human serum albumin (HSA), allows for estimating binding to plasma protein (PPB). Generally, PPB affects drug pharmacokinetics, including distribution, half-life, and clearance. While lipophilicity is a well-known factor in determining PPB, it should also be considered in early drug discovery. In general, more lipophilic compounds tend to have higher percentages of PP due to nonspecific interactions with proteins. However, hydrophilic compounds can also bind strongly to PP through […] and electrostatic interactions by binding in protein pockets.
For HSA-HPLC experiments, the column was Chiralpak® HSA (100 × 4 mm; 5 µm with safety guard column; Daicel Chiral Technologies, West Chester, PA, USA). The column temperature was set to 30 °C. The same phase A as in the IAM-HPLC case was used, and the mobile phase B was isopropanol (i-PrOH). The linear gradient from 0 to 20% i-PrOH was applied from 0 to 15 min, held at 20% i-PrOH for 12 min, and then returned to pure ammonium acetate solution. The mobile phase flow rate was 0.9 mL/min throughout the experiment. Three minutes of column recalibration was applied between each run. The retention times were collected at wavelengths between 190 and 300 nm, and the injection volume was 10 μL.

[3] = IAM-HPLC, immobilized artificial membrane chromatography (affinity to phospholipids); assay type: physicochemical; set-up: scale not given here; details: IAM.PC.DD2 column, pH 7.4
Text: In considering that lipophilicity is a known factor influencing passive diffusion across the BBB, this is an important observation. The affinity to phospholipids can also be determined using one-gradient protocols and the IAM column. CHIIAM can be used as a cut-off point to indicate the potential for promiscuous binding and interference with phospholipids.
The immobilized artificial membrane column (IAM.PC.DD2, 10 × 4.6 mm × 10.0 µm with a guard column (Regis Technologies; Morton Grove, IL, USA) was used for IAM-HPLC experiments. The column temperature was set to 30 °C. Similar to RP-HPLC, mobile phase A was a 50 mM ammonium acetate at pH 7.4, and mobile phase B was acetonitrile. The linear gradient from […] ACN was applied from 0 to 5.25 min and held at 98% ACN for 0.5 min at a constant flow rate of 1.5 mL/min.

SMILES | CHIC18 pH = 2.6 [1] | CHIC18 pH = 7.4 [1] | CHIC18 pH = 10.6 [1] | CHI LogP [1] | LogKHSA [2] | %HSA [2] | CHIIAM [3] | affinity to HSA, in words [2] | affinity to HSA compared with reference diclofenac [2]
O=C1c2ccccc2S(=O)(=O)N1CCCCCCN1CCN(c2cccc(Cl)c2)CC1 [molecule 16] | 61.89 | 108.61 | 111.92 | 4.58 | 1.71 | 99.06% | 46.73 |  | 
O=C1c2ccccc2S(=O)(=O)N1CCCCCCN1CCN(c2ccc(Cl)cc2)CC1 [molecule 17] | 61.34 | 106.56 | 110.38 | 4.49 | 1.57 | 98.36% | 46.32 |  | 
O=C1c2ccccc2S(=O)(=O)N1CCCCCCN1CCN(c2cccc3ccccc23)CC1 [molecule 21] | 65.07 | 109.08 | 118.03 | 4.91 | 1.75 | 99.25% | 48.85 |  | 
COc1ccccc1N1CCN(CCCCN2C(=O)c3ccccc3S2(=O)=O)CC1 [molecule 2] | 60.08 | 110.90 | 109.41 | 4.44 | 1.72 | 99.13% | 46.90 |  | 
O=C1c2ccccc2S(=O)(=O)N1CCCCN1CCN(c2cccc(Cl)c2Cl)CC1 [molecule 3] | 49.19 | 78.80 | 87.69 | 3.27 | 0.52 | 77.60% | 35.71 |  | 
O=C1c2ccccc2S(=O)(=O)N1CCCCCCN1CCN(c2nsc3ccccc23)CC1 [molecule 24] | 60.18 | 102.90 | 107.33 | 4.33 | 1.23 | 95.36% | 45.78 |  | 
COc1ccc(N2CCN(CCCCCCN3C(=O)c4ccccc4S3(=O)=O)CC2)cc1 [molecule 15] | 55.04 | 87.50 | 96.78 | 3.76 | 0.65 | 82.67% | 40.04 |  | 
O=C1c2ccccc2S(=O)(=O)N1CCCCN1CCN(c2ccc(Cl)cc2)CC1 [molecule 4] | 56.31 | 100.82 | 100.70 | 3.97 | 1.32 | 96.38% | 42.61 |  | 
O=C1c2ccccc2S(=O)(=O)N1CCCCCCN1CCN(c2ccc(Cl)c(Cl)c2)CC1 [molecule 18] | 65.39 | 119.04 | 118.39 | 4.93 | 2.27 |  | 50.19 |  | higher affinity to reference diclofenac
COc1ccccc1N1CCN(Cc2ccc(CN3C(=O)c4ccccc4S3(=O)=O)cc2)CC1 [molecule 26] | 55.76 | 100.20 | 100.01 | 3.93 | 1.19 | 94.87% | 41.48 |  | 
COc1cccc(N2CCN(CCCCCCN3C(=O)c4ccccc4S3(=O)=O)CC2)c1 [molecule 14] | 55.41 | 94.73 | 99.75 | 3.92 | 0.93 | 90.46% | 41.42 |  | 
COc1ccccc1N1CCN(CCCCCCN2C(=O)c3ccccc3S2(=O)=O)CC1 [molecule 13] | 54.89 | 84.12 | 96.78 | 3.76 | 0.42 | 73.28% | 40.54 |  | 
O=C1c2ccccc2S(=O)(=O)N1CCCCCN1CCN(c2cccc3ccccc23)CC1 [molecule 11] | 63.51 | 104.83 | 111.43 | 4.55 | 1.67 | 98.90% | 47.26 |  | 
O=C1c2ccccc2S(=O)(=O)N1CCCCCCN1CCN(c2cccc3sccc23)CC1 [molecule 25] | 60.65 | 101.68 | 108.64 | 4.40 | 1.57 | 98.37% | 45.96 |  | 
O=C1c2ccccc2S(=O)(=O)N1CCCCCCN1CCN(c2cccc(C(F)(F)F)c2)CC1 [molecule 19] | 63.86 | 113.75 | 114.05 | 4.69 | 1.85 | 99.61% | 46.84 |  | 

Continued, values first:

CHIC18 pH = 2.6 [1] | CHIC18 pH = 7.4 [1] | CHIC18 pH = 10.6 [1] | CHI LogP [1] | LogKHSA [2] | %HSA [2] | CHIIAM [3] | affinity to HSA, in words [2] | affinity to HSA compared with reference diclofenac [2] | SMILES
57.21 | 97.64 | 104.68 | 4.19 | 1.00 | 91.90% | 42.69 |  |  | O=C1c2ccccc2S(=O)(=O)N1CCCCCCN1CCN(c2ccccc2F)CC1 [molecule 20]
38.96 | 76.74 | 84.51 | 3.10 | 0.72 | 84.71% | 35.73 |  |  | O=C1c2ccccc2S(=O)(=O)N1CCCCCN1CCN(c2ccccn2)CC1 [molecule 10]
43.25 | 82.33 | 90.87 | 3.44 | 0.55 | 78.60% | 38.48 |  |  | O=C1c2ccccc2S(=O)(=O)N1CCCCCCN1CCN(c2ccccn2)CC1 [molecule 22]
41.03 | 80.76 | 89.54 | 3.37 | −0.05 | 47.66% | 34.77 | relatively low-binding to HAS |  | O=C1c2ccccc2S(=O)(=O)N1CCCCCCN1CCN(c2ncccn2)CC1 [molecule 23]
72.79 | 112.26 | 112.92 | 4.63 | 1.77 | 99.31% | 48.28 |  |  | O=C1c2ccccc2S(=O)(=O)N1CCCCCN1CCN(c2cccc(Cl)c2Cl)CC1 [molecule 7]
55.26 | 93.84 | 100.78 | 3.98 | 1.00 | 91.87% | 41.59 |  |  | O=C1c2ccccc2S(=O)(=O)N1CCCCCCN1CCN(c2ccccc2)CC1 [molecule 12]
48.71 | 74.93 | 81.12 | 2.91 | 0.58 | 79.78% | 34.40 |  |  | O=C1c2ccccc2S(=O)(=O)N1CCCCCN1CCN(c2ncccn2)CC1 [molecule 9]
52.20 | 89.50 | 95.60 | 3.70 | 0.84 | 88.23% | 39.09 |  |  | O=C1c2ccccc2S(=O)(=O)N1CCCCCN1CCN(c2ccccc2)CC1 [molecule 5]
